Assay [1] deals with T1, human OX2 receptors (Homo sapiens, UniProt O43614).
T1 construct: expressed in transfected cells; host or cells: HEK-293 cells
T1 sequence (O43614 1-444): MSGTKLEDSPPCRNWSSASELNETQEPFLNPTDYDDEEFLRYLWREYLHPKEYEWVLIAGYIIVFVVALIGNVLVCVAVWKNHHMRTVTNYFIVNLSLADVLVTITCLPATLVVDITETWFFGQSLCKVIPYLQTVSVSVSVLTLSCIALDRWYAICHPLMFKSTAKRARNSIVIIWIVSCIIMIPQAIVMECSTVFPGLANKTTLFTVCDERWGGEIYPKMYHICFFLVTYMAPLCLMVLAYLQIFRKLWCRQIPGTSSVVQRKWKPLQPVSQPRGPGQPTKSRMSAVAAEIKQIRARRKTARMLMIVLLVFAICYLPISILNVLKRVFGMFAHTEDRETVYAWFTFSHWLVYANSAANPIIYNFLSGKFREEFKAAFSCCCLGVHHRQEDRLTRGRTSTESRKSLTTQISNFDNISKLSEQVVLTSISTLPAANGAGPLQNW
Description: antagonistic activity against human OX2 receptor, calcium fluorimetry (Fluo-4NW) in transfected HEK-293 cells. As to conditions: HEK-293 cells transfected with human recombinant OX2, activated with orexin-B 10 nM; pKb = co-logarithm of apparent dissociation constant (modified Cheng Prusoff). The assay is classed as cell-based. On the procedure: (§1) In a typical experiment, the antagonistic activity against human OX1 and OX2 receptors is determined by using CHO e HEK-293 cells transfected with human recombinant OX1 and OX2 receptors respectively, seeded at density of 2 and 3×10^4 cells/well respectively in a 96 fluorimetry well plate. Thus the plate was loaded with the calcium dye (Fluo-4NW/probenecid in HBSS, Hepes 20 mM, pH 7,4; Invitrogen) at 37° C. for 60 min. Afterward the temperature was equilibrated at 22° C. for 15 min and the [Ca2+]i measured directly on the plate by using a fluorescent plate reader (CellLux Perkin Elmer).
(§2) Invention compounds were dissolved in DMSO, diluted in HBSS (DMSO, 0.3% final) and added to the wells. After 5 min CHO cells were activated with orexin-A, 3 nM while HEK-293 cells were activated with orexin-B, 10 nM.
(§3) The compounds, dissolved in DMSO and diluted in the medium (DMSO, 0.3% final), have been analysed in the 1 nM-1 μM concentration range (every concentration in duplicate). The antagonistic activity has been expressed as pKb (co-logarithm of the apparent dissociation constant calculated by using the modified Cheng Prusoff equation).
(§4) The results are expressed as percent of control specific […] response ((measured specific response/control specific agonist response)×100) obtained in the presence of the test compounds.
(§5) The IC50 values (concentration causing a half-maximal inhibition of the control specific agonist response) were determinated by non-linear regression analysis of the concentration curves generated with mean replicate values using hill equation curve fitting. The IC50 values are obtained by the arithmetical mean of at least two experiments.

Assay [2] addresses T2, human OX1 receptors (Homo sapiens, UniProt O43613).
T2 construct: expressed in transfected cells; host or cells: CHO cells
T2 sequence (O43613 1-425): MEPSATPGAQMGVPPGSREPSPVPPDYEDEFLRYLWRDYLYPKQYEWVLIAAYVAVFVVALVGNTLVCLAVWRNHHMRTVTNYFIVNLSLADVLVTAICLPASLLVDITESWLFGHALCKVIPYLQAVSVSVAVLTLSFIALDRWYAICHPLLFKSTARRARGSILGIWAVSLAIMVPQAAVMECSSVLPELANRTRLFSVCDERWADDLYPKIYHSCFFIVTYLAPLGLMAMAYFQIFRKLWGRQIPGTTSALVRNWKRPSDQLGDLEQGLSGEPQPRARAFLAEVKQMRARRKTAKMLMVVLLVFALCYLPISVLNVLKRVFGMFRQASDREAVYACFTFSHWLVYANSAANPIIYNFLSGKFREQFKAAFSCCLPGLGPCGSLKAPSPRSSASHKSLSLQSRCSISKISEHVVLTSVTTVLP
Description: antagonistic activity against human OX1 receptor, calcium fluorimetry (Fluo-4NW) in transfected CHO cells. Type of assay: cell-based. Particulars: CHO cells transfected with human recombinant OX1, activated with orexin-A 3 nM; pKb = co-logarithm of apparent dissociation constant (modified Cheng Prusoff). On the procedure: as §1, §2, §3, §4, §5

With `O=C(c1cc(Cl)ccc1-c1ncccn1)N1[C@H](CNc2cc(C(F)(F)F)ccn2)CC[C@H]2C[C@H]21` [Compound 1a, (5-chloro-2-(pyrimidin-2-yl)phenyl)((1R,3S,6S)-3-(((4-(trifluoromethyl)pyridin-2-yl)amino)methyl)-2-azabicyclo[4.1.0]heptan-2-yl)methanone], the antagonist equilibrium constant (Kb) in assay [1] is 3.98 nM; in assay [2], 1.58 nM. For the compound `N#Cc1ccc(-c2ncccn2)c(C(=O)N2[C@H](CNc3ccc(C(F)(F)F)cn3)CC[C@H]3C[C@H]32)c1` [Compound 1b, 4-(pyrimidin-2-yl)-3-((1R,3S,6S)-3-(((5-(trifluoromethyl)pyridin-2-yl)amino)methyl)-2-azabicyclo[4.1.0]heptane-2-carbonyl)benzonitrile], the Kb in assay [1] was 10 nM; in assay [2] it was 5.01 nM. Taken in the same sequence, the figures for `Cc1ccc(-c2ncccn2)c(C(=O)N2[C@H](CNc3ccc(Cl)cn3)CC[C@H]3C[C@H]32)c1` [Compound 1c] were 12.6 nM and 0.794 nM. On to `Cc1ccc(-c2ncccn2)c(C(=O)N2[C@H](CNc3ccc(C(F)(F)F)cn3)CC[C@H]3C[C@H]32)c1` [Compound 1d, (5-methyl-2-(pyrimidin-2-yl)phenyl)((1R,3S,6S)-3-(((5-(trifluoromethyl)pyridin-2-yl)amino)methyl)-2-azabicyclo[4.1.0]heptan-2-yl)methanone], for which the results for the antagonist dissociation constant (Kb) in assay [1] and in assay [2] were 3.98 nM and 1.26 nM, respectively. On to `O=C(c1cc(Cl)ccc1-c1ncccn1)N1[C@H](CNc2ccc(C(F)(F)F)cn2)CC[C@H]2C[C@H]21` [Compound 1e, (5-chloro-2-(pyrimidin-2-yl)phenyl)((1R,3S,6S)-3-(((5-(trifluoromethyl)pyridin-2-yl)amino)methyl)-2-azabicyclo[4.1.0]heptan-2-yl)methanone], for which the antagonist equilibrium constant (Kb) in assay [1] was 12.6 nM; in assay [2], 2.51 nM. With `O=C(c1cc(Cl)ccc1-c1ncccn1)N1[C@H](CNc2ccc(Cl)cn2)CC[C@H]2C[C@H]21` [Compound 1f, (5-chloro-2-(pyrimidin-2-yl)phenyl)((1R,3S,6S)-3-(((5-chloropyridin-2-yl)amino)methyl)-2-azabicyclo[4.1.0]heptan-2-yl)methanone], the Kb in assay [1] is 15.8 nM; in assay [2], 0.794 nM. As to `O=C(c1cc(Cl)ccc1-c1ncccn1)N1[C@H](CNc2nccc(C(F)(F)F)n2)CC[C@H]2C[C@H]21` [Compound 1g, (5-chloro-2-(pyrimidin-2-yl)phenyl)((1R,3S,6S)-3-(((4-(trifluoromethyl)pyrimidin-2-yl)amino)methyl)-2-azabicyclo[4.1.0]heptan-2-yl)methanone], the antagonist dissociation constant (Kb) in assay [1] is 5.01 nM; in assay [2], 1 nM. As to `N#Cc1ccc(-c2ncccn2)c(C(=O)N2[C@H](CNc3cc(C(F)(F)F)ccn3)CC[C@H]3C[C@H]32)c1` [Compound 1h, 4-(pyrimidin-2-yl)-3-((1R,3S,6S)-3-(((4-(trifluoromethyl)pyridin-2-yl)amino)methyl)-2-azabicyclo[4.1.0]heptane-2-carbonyl)benzonitrile], the values for the Kb in assay [1] and in assay [2] were 10 nM and 7.94 nM, respectively. Taken in the same sequence, the figures for `N#Cc1ccc(-c2ncccn2)c(C(=O)N2[C@H](CNc3ccc(Cl)cn3)CC[C@H]3C[C@H]32)c1` [Compound 1i, 3-((1R,3S,6S)-3-(((5-chloropyridin-2-yl)amino)methyl)-2-azabicyclo[4.1.0]heptane-2-carbonyl)-4-(pyrimidin-2-yl)benzonitrile] were 20 nM and 1.58 nM. For `N#Cc1ccc(-c2ncccn2)c(C(=O)N2[C@H](CNc3nccc(C(F)(F)F)n3)CC[C@H]3C[C@H]32)c1` [Compound 1j, 4-(pyrimidin-2-yl)-3-((1R,3S,6S)-3-(((4-(trifluoromethyl)pyrimidin-2-yl)amino)methyl)-2-azabicyclo[4.1.0]heptane-2-carbonyl)benzonitrile], in that order: 20 nM and 5.01 nM. For `Cc1ccc(-c2ncccn2)c(C(=O)N2[C@H](CNc3nccc(C(F)(F)F)n3)CC[C@H]3C[C@H]32)c1` [Compound 1k, (5-methyl-2-(pyrimidin-2-yl)phenyl)((1R,3S,6S)-3-(((4-(trifluoromethyl)pyrimidin-2-yl)amino)methyl)-2-azabicyclo[4.1.0]heptan-2-yl)methanone], in that order: 5.01 nM and 2.51 nM. Regarding `Cc1nc(C(=O)N2[C@H](CNc3ccc(C(F)(F)F)cn3)CC[C@H]3C[C@H]32)c(-c2ccccc2)s1` [Compound 2a, (2-methyl-5-phenylthiazol-4-yl)((1R,3S,6S)-3-(((5-(trifluoromethyl)pyridin-2-yl)amino)methyl)-2-azabicyclo[4.1.0]heptan-2-yl)methanone], the antagonist equilibrium constant (Kb) in assay [1] and in assay [2] was 2.51 nM each time. With `Cc1nc(C(=O)N2[C@H](CNc3ccc(Cl)cn3)CC[C@H]3C[C@H]32)c(-c2ccccc2)s1` [Compound 2b, ((1R,3S,6S)-3-(((5-chloropyridin-2-yl)amino)methyl)-2-azabicyclo[4.1.0]heptan-2-yl)(2-methyl-5-phenylthiazol-4-yl)methanone], the antagonist equilibrium constant (Kb) in assay [1] was 15.8 nM; in assay [2], 1.26 nM. Regarding `Cc1nc(C(=O)N2[C@H](CNc3nccc(C(F)(F)F)n3)CC[C@H]3C[C@H]32)c(-c2ccccc2)s1` [Compound 2c, (2-methyl-5-phenylthiazol-4-yl)((1R,3S,6S)-3-(((4-(trifluoromethyl)pyrimidin-2-yl)amino)methyl)-2-azabicyclo[4.1.0]heptan-2-yl)methanone], the antagonist equilibrium constant (Kb) was 6.31 nM in assay [1] and 1.26 nM in assay [2]. `N#Cc1ccc(-c2ncccn2)c(C(=O)N2[C@H](COc3ccc(F)cn3)CC[C@H]3C[C@H]32)c1` [Compound 3b, 3-((1R,3S,6S)-3-(((5-fluoropyridin-2-yl)oxy)methyl)-2-azabicyclo[4.1.0]heptane-2-carbonyl)-4-(pyrimidin-2-yl)benzonitrile]: in assay [2], the Kb is 79.4 nM.

Take `O=C(c1cc(Cl)ccc1-c1ncccn1)N1[C@H](CNc2ccc(Cl)cn2)CC[C@@H]2C[C@@H]21` [Compound 4e, (5-chloro-2-(pyrimidin-2-yl)phenyl)((1S,3S,6R)-3-(((5-chloropyridin-2-yl)amino)methyl)-2-azabicyclo[4.1.0]heptan-2-yl)methanone]: the antagonist dissociation constant (Kb) in assay [2] was 3.98 nM. In the case of `Cc1ccc(-c2ncccn2)c(C(=O)N2[C@H](CNc3ccc(Cl)cn3)CC[C@@H]3C[C@@H]32)c1` [Compound 4g, ((1S,3S,6R)-3-(((5-chloropyridin-2-yl)amino)methyl)-2-azabicyclo[4.1.0]heptan-2-yl)(5-methyl-2-(pyrimidin-2-yl)phenyl)methanone], the Kb in assay [2] is 1.58 nM. For the compound `O=C(c1cc(Cl)ccc1-c1ncccn1)N1[C@H](CNc2nccc(C(F)(F)F)n2)CC[C@@H]2C[C@@H]21` [Compound 4h, (5-chloro-2-(pyrimidin-2-yl)phenyl)((1S,3S,6R)-3-(((4-(trifluoromethyl)pyrimidin-2-yl)amino)methyl)-2-azabicyclo[4.1.0]heptan-2-yl)methanone], the antagonist dissociation constant (Kb) in assay [2] was 31.6 nM. Consider `Cc1ccc(-c2ncccn2)c(C(=O)N2[C@H](CNc3nccc(C(F)(F)F)n3)CC[C@@H]3C[C@@H]32)c1` [Compound 4i, (5-methyl-2-(pyrimidin-2-yl)phenyl)((1S,3S,6R)-3-(((4-(trifluoromethyl)pyrimidin-2-yl)amino)methyl)-2-azabicyclo[4.1.0]heptan-2-yl)methanone], for which the antagonist dissociation constant (Kb) in assay [2] was 25.1 nM.
